Experimental data published in patent US9745357B2, “Peptides used for treating cancers and, in particular, chronic lymphoid leukaemia” (Centre National de la Recherche Scientifique, priority 2009, dated 2017).
Entries after “also recorded” stand apart in the source; their conditions may differ. No end group written: not given here.

What was measured:
[1] = test system: cap-dependent translation (eIF4E-dependent); assay: Effect of the peptides on translation of capped luciferase mRNA in rabbit reticulocyte lysate; type: biochemical; details: 50 μM peptide, compared with DMSO = 100%, FIG. 2
Description: The peptides having the IRS motif and the sequences of 4EBPlike type (A1WT, BPSgWT, and BP2WT) or the mutant sequences of 4EPBlike type (A1YALA, BPSgYALA, BP2YALA) are incubated in rabbit reticulocyte lysate containing capped mRNAs encoding luciferase, an enzyme of which the activity can be easily assayed. The translational activity is directly proportional to the activity of the luciferase produced. The translational activity in the presence of peptide is compared with that obtained during the addition of an equivalent volume of DMSO, considered to be 100%.
The peptides were produced, purified by HPLC (purity>95%), and freeze-dried by Thermofisher Scientific. The peptides were then dissolved at 10 mM in DMSO.
The capped mRNAs encoding Renilla luciferase (Luc R) were produced by the T7 Message Machine Kit system (Ambion) from the pGb-Eg2-410Δ2-hxG-A65 plasmid linearized with EcoRV (Legagneux V, Omilli F, Osborne HB (1995) Substrate-specific regulation of RNA deadenylation in Xenopus embryo and activated egg extracts. RNA 1: 1001-1008).
The Luc R mRNAs were translated for one hour at 30° C. in rabbit reticulocyte lysate (Flexi Rabbit Reticulocyte Lysate System, Promega) in the presence of 50 μM of peptide. The luciferase activity was determined using the Renilla luciferase assay (Promega) on the Tristar LB941 luminometer (Berthold).
A capped mRNA (having a cap at the 5′ end) encoding luciferase, a protein which can be easily assayed by measuring its activity, was translated in the presence of these various peptides in rabbit reticulocyte lysate (FIG. 2). The luciferase activity measured is directly proportional to the amount of luciferase protein produced and therefore to the cap-dependent translational activity. Since the peptides are dissolved in DMSO, it was important to test the effect of DMSO on the translation. […] The translational activity in the presence of peptide was compared with that obtained when an equal volume of DMSO is added, considered to be equal to 100%.

[2] = test system: B lymphocytes from patients suffering from chronic lymphoid leukemia (CLL); details: for effect on percentage cell survival / cell effect CLL 40 (survival): 40 μM peptide; for effect on percentage cell survival: 4 H and 24 H, FIG. 3; for cell effect CLL 40 (survival): 4 hours of culture, cells not labeled with annexin or propidium iodide; for action of the peptide on cell survival, in words, cell type not given: Example 6 (CLL cells, control T lymphocytes, Jok cells)
Description: Peripheral blood B lymphocytes taken from patients suffering from CLL and then purified on a Ficoll cushion and placed in culture are incubated in the presence of […] of the peptides described for FIG. 2. The percentage cell survival after 4 hours (gray column) or 24 hours (white column) of culture corresponds to the percentage of cells labeled neither with annexin nor with propidium iodide, evaluated by flow cytometry.
The CLL B lymphocytes were obtained from peripheral blood of 18 different patients suffering from chronic lymphoid leukemia. […] The samples were taken in the Brest hospital center, in the hematology department. The blood samples were taken after informing the patients and obtaining their informed consent.
The lymphocytes, mononuclear cells, were isolated from the heparinized peripheral blood samples by Ficoll-Hypaque (LSM 1077 lymphocyte, euro-bio) centrifugation. The red blood cells were lyzed by incubation for 10 min in VersaLyse Lysing Solution (Beckman Coulter). The mononuclear cells are obtained after 2 washes in culture medium (RPMI1640, Gibco BRL).
(§1) The cells were cultured in a culture medium composed either of RPMI 1640 (B lymphocytes) or of DMEM (COS7, HCT116, HGT1, 293, HeLa) containing 10% of FCS (fetal calf serum, 1% of penicillin-streptomycin and 1% of glutamine, Gibco BRL). The cells are distributed in a 24-well plate and cultured at 37° C. in a humid atmosphere under 5% CO2.
(§2) 400 μl of cell suspension (1×10^6 cells/ml) per well were treated for 4 h or 24 h with various concentrations of peptides. The test for activity of the peptides in the presence of emetine (FIG. 6) was carried out by preincubating the cells with 100 μM of emetine for one hour before the addition of peptide.
(§3) After the cells have been washed with PBS, they were analyzed using the Annexin V-FITC IP system according to the supplier's recommendations (Beckman Coulter).
The cells taken from patients suffering from chronic lymphoid leukemia were purified on a Ficoll cushion. […] The cells were placed in culture in RPMI medium in the presence of 10% FCS (fetal calf serum). The peptides were added directly to the culture medium. These peptides comprise the IRS sequence (the amino acid sequence of which is RYIRS) which is known to allow the penetration of peptides into B lymphocytes in culture (Dong et al., 2005). […] The cells which survive the treatment are those which are labeled neither with annexin nor with propidium iodide.

[3] = test system: Jok cells (cell line derived from B lymphocytes); assay: Cell survival of Jok cells, annexin/propidium iodide flow cytometry; type: cell-based, human; details: for cell effect Jok 20 (survival): 20 μM peptide; for cell effect Jok 20 (survival) / cell effect Jok 40 (survival): 4 hours of culture, cells not labeled with annexin or propidium iodide; for cell effect Jok 40 (survival): 40 μM peptide
Description: The cells are treated as indicated for FIG. 7, with the CLL cells, control T lymphocytes and Jok lymphocytes, which are incubated with the A1 WT IRS peptide and derivatives thereof described in table 1. The Jok cells were incubated either with 20 μM (JOK 20) or with 40 μM (JOK 40) of each of the peptides. In the interests of simplifying the legend, the A1 WT IRS peptide is referred to as “WT”. Likewise, the derivatives thereof are referred to by the name of the mutations (A1 K3I IRS is referred to as “K3I”, for example).
as §1, §2, §3
The peptides were tested on B lymphocytes from patients suffering from chronic lymphoid leukemia, control T lymphocytes, or Jok cells (cell line derived from B lymphocytes). The experiment was repeated three times for each type of cell tested.

[4] = test system: control T lymphocytes (patients suffering from hemochromatosis); assay: Cell survival of control T lymphocytes, annexin/propidium iodide flow cytometry; type: cell-based, human; details: 40 μM peptide, 4 hours of culture, cells not labeled with annexin or propidium iodide
Description: FIG. 7: Activity of the A1WT peptide on cells of lymphocytic, lymphoid, gastric, colonic or renal origin The cells are prepared and placed in culture (see Materials and Methods) and then incubated for 4 H with the A1WT or A1 YALA peptide. The percentage cell survival corresponds to the percentage of cells labeled neither with annexin nor with propidium iodide, evaluated by flow cytometry. The names of the pathological conditions from which the patients from whom the samples are taken are suffering are indicated under the figure. The control T (L.T.) and B (L.B.) lymphocytes are taken from patients suffering from a disease not related to a lymphocytic pathological condition (hemochromatosis).
The control B lymphocytes and T lymphocytes originate from peripheral blood samples from patients suffering from hemochromatosis, provided by the CTS transfusion center in Brest. The B and T lymphocytes were isolated using the Rosett-Sep kit (Stemcell Technologies) according to the supplier's recommendations.
as §1, §2, §3

[5] = target: T1, eIF4E (Mus musculus, UniProt P63073); assay: Test for interaction of YFP-fused peptide sequences with eIF4E (GST-eIF4E beads, affinity chromatography); type: binding; details: 35S Met-labeled YFP fusion produced in rabbit reticulocyte lysate; SDS-PAGE, autoradiography; FIG. 1
T1 construct: made in house; host or cells: E. coli BL21DE3 (Novagen), pGEX-4T-1 vector
T1 sequence (P63073 whole entry, the tested form may be a part): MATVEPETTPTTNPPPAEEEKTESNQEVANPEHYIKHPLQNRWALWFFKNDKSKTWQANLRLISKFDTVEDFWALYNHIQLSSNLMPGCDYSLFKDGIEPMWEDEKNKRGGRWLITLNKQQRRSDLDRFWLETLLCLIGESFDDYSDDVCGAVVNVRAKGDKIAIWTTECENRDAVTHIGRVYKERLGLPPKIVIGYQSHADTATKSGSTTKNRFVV
Text: The eIF4E protein fused to glutathione-S-transferase (GST-eIF4E) or GST alone (GST), used as a control, are produced in bacteria, purified and immobilized on glutathione beads. The YFP, YFP-A1 WT and YFP-A1 YALA proteins were produced in rabbit reticulocyte lysate in the presence of 35S methionine and chromatographed on the GST-eIF4 or GST beads. The proteins retained on the beads are eluted and analyzed by SDS-PAGE followed by autoradiography.
The plasmids encoding the YFP protein-peptides were obtained by amplification of the reading frame of the YFP protein (enhanced yellow-green variant of the Aequorea victoria green fluorescent protein) from the pEYFP-C1 plasmid (Clontech). The 5′ primer used (sequence described below) made it possible to insert a T7 promoter (underlined sequence) upstream of the reading frame of YFP. […] The pGEX 4E plasmid was obtained by inserting the reading frame of the mouse eIF4E protein at the BamHI/EcoRI sites of the PGEX-4T-1 vector (Amersham pharmacia biotech). […] After washing, the proteins were eluted with SDS loading buffer, and analyzed, after an SDS-PAGE gel, by autoradiography (Typhoon Phospholmager, Amersham Pharmacia Biotech).
Biochemical validation of the peptides identified was then carried out by means of affinity chromatography approaches. […] The ability of these peptides to interact with eIF4E was then analyzed by affinity chromatography. […]

“RIIADRKFAADRRYIRS [BP2 YALA IRS, YALA mutant control of BP2 WT IRS]” was tested. Which “inhibition of translation (luciferase activity)” value (“inhibition of translation” for short) [1] did it give?
Its value is “does not cause any inhibition of the translation”.

For “RIIYDRKFLLDRRYIRS [BP2 WT IRS, reference compound]”, which “inhibition of translation” value [1] is on record?
Its value is “strong inhibition of the translation”.

What about the “inhibition of translation” value ([1]; listed as BP2) of the same substance?
The value was “effectively inhibits eIF4E-dependent translation”.

What about the “effect on percentage cell survival” value [2] of the same substance?
The value was “the percentage survival did not decrease”.

What about the “cell effect CLL 40 (survival)” value [2] of the same substance?
The value was “− (−: survival >50%)”.

And the “effect of the peptide on cell mortality, in words (relative to A1 WT IRS)” value ([2]; 40 μM, 4 hours, FIG. 9)?
The value was “has no effect”.

What about the “action of the peptide on cell survival, in words, cell type not given” value [2] of the same substance?
The value was “has no effect on cell survival”.

What about the “cell effect Jok 20 (survival)” value [3] of the same substance?
The value was “− (−: survival >50%)”.

What about the “cell effect Jok 40 (survival)” value [3] of the same substance?
The value was “− (−: survival >50%)”.

And the “effect of the peptide on cell mortality, in words (relative to A1 WT IRS)” value ([3]; concentration not given (20 or 40 μM), 4 hours, FIG. 9)?
Its value is “has no effect”.

Which “inhibition of translation” value [1] does the source give for “RRKAGRDFAARFRYIRS [A1 YALA IRS, reference compound]” here?
The value was “does not inhibit the translation”.

What about the “cell effect LT 40 (survival)” value [4] of the same substance?
Its value is “− (−: survival >50%)”.

What about the “effect on percentage cell survival” value [2] of the same substance?
The value was “has no effect”.

And the “cell effect CLL 40 (survival)” value [2]?
Its value is “− (−: survival >50%)”.

And the “action of the peptide on cell survival, in words, cell type not given” value [2]?
The value was “has no effect”.

What about the “cell effect Jok 20 (survival)” value [3] of the same substance?
Its value is “− (−: survival >50%)”.

What about the “cell effect Jok 40 (survival)” value [3] of the same substance?
The value was “− (−: survival >50%)”.

With “YFP-A1 WT: YFP, yellow fluorescent protein, fused to a peptide derived from the human Angel 1 protein, of sequence RRKYGRDFLLRF (SEQ ID No. 3) (also: fused to YFP)” as the substance, how does the “interaction with eIF4E (retention on GST-eIF4E beads)” value [5] read?
The value was “associates more strongly with eIF4E than the other peptides tested; also recorded: is retained on GST-eIF4E beads”.
